The test system of one test is Nicastrin. The experiment in a line: Real-time RT-PCR, Nicastrin in IMR-32 cells. Type of test: cell-based, human. On the procedure:
(§1) Human IMR-32 cells were seeded on gelatinized 6-well (6.5×10^5 cells/well) or 24-well (1.3×10^5 cells/well) plates, while mouse liver AML-12 cells were cultured on uncoated 6-well (3.33×10^5 cells/well) or 24-well (6.7×10^4 cells/well) plates. Cells were treated with vehicle (control) or various compounds for 6, 24 or 48 hr. Total RNA from these cells was using Trizol (Invitrogen) according to the Manufacturer's protocol, and then incubated with DNase I to remove any potential contaminated genomic DNA. Then RNA samples were subjected to real-time PCR analysis using the Applied-Bioscience's RT kit and predesigned Taqman probes (Invitrogen), as described previously (Lan et al EMBO J 2003). Three to six samples were analyzed in each treatment group. Data were normalized by Actin B (Actb) or Glyceraldehyde Phosphate Dehydrogenase (Gapdh) levels in each sample, and are presented as mean±sem of 3-6 samples.
(In general: In qPCR the cycle at which signal appears reflects the starting amount.)

Another test concerns Gsk3b. Nature of the test: Real-time RT-PCR, Gsk3b in IMR-32 cells. Type of test: cell-based, human. The protocol:
as §1

In a further test the test system is HEK293T cells. The experiment in a line: Fluorescence analysis of mitochondrial potential in HEK293T cells. As to conditions: for MT potential (Mitotracker Orange fluorescence): 4.5 hr; for MT potential / mitochondrial activity in kidney cells: dose not stated. Type of test: cell-based, human. The protocol:
HEK293T cells were cultured in 8-chamber glass slides (1×10^4 cells/chamber) for 24 hours, and then treated with various concentrations of compounds or its respective sulfur analogs (dissolved in sterilized water) for 4.5 hr. These compound-treated cells were rinsed twice with PBS, and incubated with Mitotracker Orange Fluorescence Dye (Invitrogen) at 37° C. for 30 min, and then replaced with fresh PBS according to the Manufacturer's protocol. Then fluorescent signals (mitochondrial potential) in these living cells were recorded using a Zeiss Axio Vert.A1 fluorescence microscope (Thornwood, N.Y.). At least three samples in each treatment group were analyzed under the fluorescent microscope.

A further test concerns IMR-32 cells. The experiment in a line: Quantitative analysis of mitochondrial potential in IMR-32 cells. Format: cell-based, human. As to conditions: for enhanced MT potential compared with sulfur analogs: 24 hr. The protocol:
Similar to the above studies on AML-12 cells, the mitochondrial potential per cell in living IMR-32 cells was determined using the Bio-TeK Synergy HT Multi-Mode fluorescence microplate reader with the following modifications. To improve the attachment of IMR-32 cells to culture dishes, cell culture plates were precoated with 0.1% gelatin (Sigma, St. Louis, Mo.). 2×10^4 cells per a 96-well were seeded on gelatinized 96-well plates for the above studies. To reduce the cell dislodgment, Mitotracker orange and Hoechst 33342 fluorescent dyes (diluted in culture media) were directly added to each well after vehicle- or compound-treatments. After dye incubation, cell culture media were carefully replaced with 1× PBS for the quantitation analysis of fluorescence on the microplate reader. Eight samples per each treatment were examined for the above analysis, and the experiments were repeated at least five times. Data are presented as mean±sem of eight samples.

The test system of the next test is pAKT. Nature of the test: Western blot, pAKT in IMR-32 cells. Format: cell-based, human. As to conditions: 150 ppb. The protocol:
(§2) IMR-32 and AML12 cells were seeded on 6-well plates, and then treated with vehicle and various compounds for 6 and 24 hr, as described above. After treatments, cells were rinsed with ice-cold PBS, and lysed in the ice-cold RIPA buffer containing complete proteinase and phosphotase inhibitors (Themo-Fisher Scientific, Waltham, Mass.) on ice for 30 min. Cell lysates were collected using a cell scraper and transfer pipette, and then centrifuged at 12000 g for 30 min at 4° C. to remove the DNA pellet and obtain the protein extract. Protein levels in the supernatant of these cell lysates were determined using the Pierce Micro-BCA protein assay kit (Themo Scientific-Piece Biotechnology, Rockford, Ill.) according to the manufacturer's protocol.
(§3) For Western blot analysis, five micrograms of total proteins from vehicle- and compound(s)-treated cells were subjected to SDS-PAGE gel separation, and then transferred to PVDF membranes, as described previously (Reddy, Liu et al. 2008 Science). Membranes were blocked in a phosphate-buffered saline (PBS) containing 5% (w/v) of bovine serum albumin (Sigma, St. Louis, Mo.), and incubated with specific primary antibodies followed by the incubation with HRP-conjugated anti-mouse or anti-rabbit secondary antibodies (1:5000 dilution, Cell Signaling Inc.). All primary antibodies except G6PC (Santa Cruz), Actb (Li-COR, Lincoln, Nebr.), Elf2bε and pElf2bε (Abcam, Cambridge, Mass.) were purchased from Cell Signaling Inc. Positive signals on the membrane blots were detected using the Amersham's enhanced chemiluminescence Western Blotting Prime Detection reagents (GE healthcare Lifescience, Pittsburgh, Pa.). Images of these luminescence signals on the membrane blots were captured using the LI-COR Odyssey Fc Image system (Lincoln, Nebr.). […] Protein band densities in the Western blots were determined using the Li-COR Image studio software or NIH ImageJ software, and then normalized by Actb level in each sample. […]
(In general: Immunoblotting shows a protein as a band on a membrane.)

The next test relates to pFOXOs. The experiment in a line: Western blot, FOXO phosphorylation (pFOXOs) in AML-12 cells treated with individual compounds. Type of test: cell-based, mouse. As to conditions: 150 ppb, 6 or 24 hr. The protocol:
as §2, §3

In test [1] the test system is rat brain cortex mitochondria. The experiment in a line: OCR of calcium-stressed rat brain cortex mitochondria (SeaHorse). Type of test: biochemical. Particulars: calcium (10 μM) and 150 ppb compound; control 1,677, calcium alone 1,066. On the procedure:
The following example describes an experiment performed in the SeaHorse external flux analyzer; an instrument for measuring the respiration rate of mitochondria expressed as the oxygen consumption rate, or OCR. The experiment in question used mitochondria from the brain cortex of normal rats, maintained on normal laboratory chow which had not been fortified with any additional selenium sources.
An identical sample of the same mitochondrial preparation was treated in exactly the same manner as the control sample except that calcium (10 micromolar final concentration) was added to stress or damage the mitochondria by depolarizing them. As shown (bottom line) the OCR dropped from a value of 1,677 to 1,066 pMoles/min O2.
Again, identical samples of rat brain cortex mitochondria were incubated as above except that they contained calcium (10 μM) and 150 ppb of compounds D and E, respectively. C was not tested. It is evident that the OCR of the compound-treated, calcium-stressed mitochondria were restored to near control levels, i.e. 1,564 pMoles/min O2 in the case of compound D and 1,531 pMoles/min O2 in the case of compound E.

Where [2] appears, read: continuous 48 hr single treatment.

Molecules are shown by their SMILES.

Consider `C[Se]C[C@H]1O[C@@H](n2cnc3c(N)ncnc32)C(O)C1O` (stereo in doubt) [compound C, 5′-Methylselenoadenosine], for which the “Nicastrin mRNA expression” value with Nicastrin (6 hr) was “trend towards reduced Nicastrin mRNA expression”; with Nicastrin (24 hr), “significant decrease in Nicastrin mRNA expression”. The “Gsk3b mRNA expression” value in the test with Gsk3b (6 hr) is “significantly decreased”; with Gsk3b (24 hr) it was “trend of decreased Gsk3b mRNA expression”. Besides, the “MT potential (Mitotracker Orange fluorescence)” value with HEK293T cells (37.5 ppb) was “enhanced MT potential”; in the test on HEK293T cells (75 ppb), “less effects on MT potential”. Besides, the “MT potential / mitochondrial activity in kidney cells” value with HEK293T cells is given as “enhanced MT potential”. The MT potential entry is “a trend towards elevated MT potential” in the test with IMR-32 cells (6 hr, compared to control) and “did not affect MT potential” in the test with IMR-32 cells (setting [2]). In addition, in the test on IMR-32 cells, the “enhanced MT potential compared with sulfur analogs” value is given as “more pronounced”. In addition, the pAKT protein levels result with pAKT is given as “not visibly decreased”. Besides, in the test on pFOXOs, the “FOXO phosphorylation (increased pFOXOs)” value was “did not increase FOXO phosphorylation”.
On to `Nc1ncnc2c1ncn2[C@@H]1O[C@H](C[Se]CC[C@@H](N)C(=O)O)C(O)C1O` (stereo partly drawn) [compound D, 5′-Selenoadenosyl homocysteine], for which the “Nicastrin mRNA expression” value in the test with Nicastrin (24 hr) was “did not inhibit, but instead stimulated”. The results for the “Gsk3b mRNA expression” value with Gsk3b (6 hr) and with Gsk3b (24 hr) were “did not significantly inhibit Gsk3b mRNA expression” and “significant increase of Gsk3b mRNA expression”, respectively. Besides, the “MT potential (Mitotracker Orange fluorescence)” value in the test on HEK293T cells (all tested doses (37.5 and 75 ppb)) was “did not affect MT potential”. Besides, the “MT potential / mitochondrial activity in kidney cells” value in the test on HEK293T cells was “ineffective”. The “enhanced MT potential compared with respective sulfur analog(s)” value in the test with IMR-32 cells (6 hr) is reported as “more pronounced”. For the same molecule, the MT potential entry in the test with IMR-32 cells (6 hr, compared to control) is reported as “significantly enhanced MT potential”; in the test with IMR-32 cells (setting [2]), “did not affect MT potential”; with IMR-32 cells (repeated treatments (24 hr + 24 hr), 15 and 150 ppb) it was “significantly enhanced MT potential”. Further, in the test on IMR-32 cells, the “enhanced MT potential compared with sulfur analogs” value is “more pronounced”. In addition, in test [1], the “OCR (oxygen consumption rate)” value is 1,564 pMoles/min O2. Also, in the test on pAKT, the pAKT protein levels entry is reported as “not visibly decreased”. The “FOXO phosphorylation (increased pFOXOs)” value in the test with pFOXOs is listed as “did not increase FOXO phosphorylation”.
Take `C[Se]CC(NC(=O)CCC(N)C(=O)O)C(=O)O` (stereo not drawn) [compound E, gamma-glutamyl-methylseleno-cysteine]: in the test on Nicastrin (24 hr), the “Nicastrin mRNA expression” value is “did not inhibit, but instead stimulated”. In addition, the figures for the “Gsk3b mRNA expression” value in the test on Gsk3b (6 hr) and in the test with Gsk3b (24 hr) were “did not significantly inhibit Gsk3b mRNA expression” and “significant increase of Gsk3b mRNA expression”, respectively. In the test on IMR-32 cells (6 hr), the “enhanced MT potential compared with respective sulfur analog(s)” value is on record as “more pronounced”. Further, the MT potential entry in the test with IMR-32 cells (6 hr, compared to control) is on record as “significantly enhanced MT potential”; in the test with IMR-32 cells (setting [2]), “did not affect MT potential”; in the test on IMR-32 cells (repeated treatments (24 hr + 24 hr), 150 ppb), “significantly enhanced MT potential”. The “enhanced MT potential compared with sulfur analogs” value with IMR-32 cells is “more pronounced”. Besides, the “OCR (oxygen consumption rate)” value in test [1] was 1,531 pMoles/min O2. In the test on pAKT, the pAKT protein levels entry is “not visibly decreased”. In addition, the “FOXO phosphorylation (increased pFOXOs)” value in the test with pFOXOs is “did not increase FOXO phosphorylation”.

The values above are taken from patent US10201559B2, “Compositions of selenoorganic compounds and methods of use thereof” (Alltech, Inc., priority 2014, dated 2019).
